ChEMBL document CHEMBL5291721, “A preclinical secondary pharmacology resource illuminates target-adverse drug reaction associations of marketed drugs” (Nat Commun, 2023)
One block for each compound: values may come before it.

What was measured:
[1] = target: T1, Peroxisome proliferator-activated receptor alpha (Homo sapiens, UniProt Q07869); format: functional
T1 sequence (Q07869 whole entry): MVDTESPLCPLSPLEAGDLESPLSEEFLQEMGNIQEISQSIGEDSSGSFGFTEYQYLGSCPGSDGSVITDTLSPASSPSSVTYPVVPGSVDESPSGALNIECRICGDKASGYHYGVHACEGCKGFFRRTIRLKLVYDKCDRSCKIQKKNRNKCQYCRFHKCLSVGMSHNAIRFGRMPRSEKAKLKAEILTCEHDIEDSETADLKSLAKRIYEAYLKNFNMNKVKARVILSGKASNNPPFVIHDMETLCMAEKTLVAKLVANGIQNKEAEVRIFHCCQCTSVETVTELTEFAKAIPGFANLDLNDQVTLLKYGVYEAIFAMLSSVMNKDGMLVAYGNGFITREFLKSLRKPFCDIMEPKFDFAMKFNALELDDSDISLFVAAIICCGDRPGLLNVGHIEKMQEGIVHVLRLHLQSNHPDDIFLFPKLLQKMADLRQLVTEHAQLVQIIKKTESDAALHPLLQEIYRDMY

[2] = target: Receptor tyrosine-protein kinase erbB-2 (Homo sapiens, UniProt P04626); format: functional
Chain of Receptor tyrosine-protein kinase erbB-2 (P04626 whole entry): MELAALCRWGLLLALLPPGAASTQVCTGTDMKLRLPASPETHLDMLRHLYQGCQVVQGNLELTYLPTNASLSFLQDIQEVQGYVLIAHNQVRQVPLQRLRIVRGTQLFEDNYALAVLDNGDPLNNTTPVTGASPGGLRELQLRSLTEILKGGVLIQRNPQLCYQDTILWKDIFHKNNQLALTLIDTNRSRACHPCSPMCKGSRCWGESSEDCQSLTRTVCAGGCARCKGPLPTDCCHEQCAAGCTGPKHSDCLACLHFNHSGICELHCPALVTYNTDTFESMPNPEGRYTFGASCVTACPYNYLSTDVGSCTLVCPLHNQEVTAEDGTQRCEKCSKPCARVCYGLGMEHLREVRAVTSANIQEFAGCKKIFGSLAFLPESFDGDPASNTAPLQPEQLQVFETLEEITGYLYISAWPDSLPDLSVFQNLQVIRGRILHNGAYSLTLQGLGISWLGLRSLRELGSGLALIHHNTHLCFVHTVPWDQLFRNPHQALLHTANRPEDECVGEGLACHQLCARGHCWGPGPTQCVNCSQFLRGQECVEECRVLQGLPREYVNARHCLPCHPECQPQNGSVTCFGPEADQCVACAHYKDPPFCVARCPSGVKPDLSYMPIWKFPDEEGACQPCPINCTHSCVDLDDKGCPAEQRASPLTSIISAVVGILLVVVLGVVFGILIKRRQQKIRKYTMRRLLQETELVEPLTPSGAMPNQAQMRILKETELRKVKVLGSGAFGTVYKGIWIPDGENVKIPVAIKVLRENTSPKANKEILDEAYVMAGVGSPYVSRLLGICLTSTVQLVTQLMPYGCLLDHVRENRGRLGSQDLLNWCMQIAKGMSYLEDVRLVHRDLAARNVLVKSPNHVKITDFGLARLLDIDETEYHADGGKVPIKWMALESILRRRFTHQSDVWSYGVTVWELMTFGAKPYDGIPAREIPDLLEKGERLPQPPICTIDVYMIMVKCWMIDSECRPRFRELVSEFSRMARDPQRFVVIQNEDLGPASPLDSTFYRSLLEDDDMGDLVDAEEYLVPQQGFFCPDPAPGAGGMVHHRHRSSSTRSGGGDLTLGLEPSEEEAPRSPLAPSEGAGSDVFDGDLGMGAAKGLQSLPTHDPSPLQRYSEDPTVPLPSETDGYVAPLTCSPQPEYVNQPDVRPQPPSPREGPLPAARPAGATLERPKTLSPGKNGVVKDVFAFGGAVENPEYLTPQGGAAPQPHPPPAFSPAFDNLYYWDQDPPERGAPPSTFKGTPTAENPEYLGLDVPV

[3] = target: Rod cGMP-specific 3',5'-cyclic phosphodiesterase subunit alpha (Homo sapiens, UniProt P16499); format: functional
Chain of Rod cGMP-specific 3',5'-cyclic phosphodiesterase subunit alpha (P16499 whole entry): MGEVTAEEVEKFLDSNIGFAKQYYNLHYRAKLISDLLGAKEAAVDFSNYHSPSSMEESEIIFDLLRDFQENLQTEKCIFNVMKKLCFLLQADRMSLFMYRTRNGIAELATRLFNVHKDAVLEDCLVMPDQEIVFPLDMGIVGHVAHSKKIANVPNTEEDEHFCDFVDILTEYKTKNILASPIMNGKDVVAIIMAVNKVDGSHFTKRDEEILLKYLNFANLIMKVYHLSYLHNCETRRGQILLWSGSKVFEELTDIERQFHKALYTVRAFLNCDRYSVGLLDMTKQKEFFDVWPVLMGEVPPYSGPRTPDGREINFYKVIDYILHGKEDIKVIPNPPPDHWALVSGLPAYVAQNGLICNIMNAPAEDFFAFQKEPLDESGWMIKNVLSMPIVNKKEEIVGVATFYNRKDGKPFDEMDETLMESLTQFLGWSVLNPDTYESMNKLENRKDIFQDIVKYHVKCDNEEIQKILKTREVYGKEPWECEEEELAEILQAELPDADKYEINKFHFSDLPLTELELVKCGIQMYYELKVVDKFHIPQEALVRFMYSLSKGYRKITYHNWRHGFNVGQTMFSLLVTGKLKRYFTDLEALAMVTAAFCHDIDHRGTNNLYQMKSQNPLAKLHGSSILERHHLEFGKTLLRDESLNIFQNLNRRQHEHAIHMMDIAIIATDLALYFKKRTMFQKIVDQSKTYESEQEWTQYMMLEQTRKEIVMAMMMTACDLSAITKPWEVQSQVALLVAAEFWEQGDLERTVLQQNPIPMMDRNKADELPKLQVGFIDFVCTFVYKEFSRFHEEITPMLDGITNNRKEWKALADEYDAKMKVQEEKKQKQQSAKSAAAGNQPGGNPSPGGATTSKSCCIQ

[4] = target: T2, Oxysterols receptor LXR-alpha (Homo sapiens, UniProt Q13133); format: functional
T2 sequence (Q13133 whole entry): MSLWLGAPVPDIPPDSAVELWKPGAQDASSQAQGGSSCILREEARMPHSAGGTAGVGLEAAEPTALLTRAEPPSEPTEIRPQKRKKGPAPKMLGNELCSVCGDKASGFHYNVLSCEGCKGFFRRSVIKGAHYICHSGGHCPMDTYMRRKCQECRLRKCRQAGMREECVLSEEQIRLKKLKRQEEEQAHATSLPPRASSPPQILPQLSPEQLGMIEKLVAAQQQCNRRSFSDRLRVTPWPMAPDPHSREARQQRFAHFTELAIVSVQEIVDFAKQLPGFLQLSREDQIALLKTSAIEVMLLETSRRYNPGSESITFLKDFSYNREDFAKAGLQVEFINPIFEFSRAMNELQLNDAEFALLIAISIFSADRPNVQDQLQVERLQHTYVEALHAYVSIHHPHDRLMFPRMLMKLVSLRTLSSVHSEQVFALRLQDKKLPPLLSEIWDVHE

[5] = target: T3, Retinoic acid receptor beta (Homo sapiens, UniProt P10826); format: functional, cell-based
T3 sequence (P10826 whole entry): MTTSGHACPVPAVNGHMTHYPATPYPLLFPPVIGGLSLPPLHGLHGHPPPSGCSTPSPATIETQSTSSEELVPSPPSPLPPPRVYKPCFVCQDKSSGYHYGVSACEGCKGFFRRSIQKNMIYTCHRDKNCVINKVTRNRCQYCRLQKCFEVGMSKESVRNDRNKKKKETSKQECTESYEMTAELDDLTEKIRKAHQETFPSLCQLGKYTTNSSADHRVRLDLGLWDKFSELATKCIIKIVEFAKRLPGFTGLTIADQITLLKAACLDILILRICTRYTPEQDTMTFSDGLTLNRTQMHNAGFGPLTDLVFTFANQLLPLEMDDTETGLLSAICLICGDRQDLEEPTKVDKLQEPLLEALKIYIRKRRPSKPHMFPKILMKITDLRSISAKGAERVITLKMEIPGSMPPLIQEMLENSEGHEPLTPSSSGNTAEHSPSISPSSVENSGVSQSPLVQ

[6] = target: T3, Retinoic acid receptor beta; format: functional, cell-based; remark: listed apart in the source
[7] = target: T4, Retinoic acid receptor gamma (Homo sapiens, UniProt P13631); format: functional, cell-based
T4 sequence (P13631 whole entry): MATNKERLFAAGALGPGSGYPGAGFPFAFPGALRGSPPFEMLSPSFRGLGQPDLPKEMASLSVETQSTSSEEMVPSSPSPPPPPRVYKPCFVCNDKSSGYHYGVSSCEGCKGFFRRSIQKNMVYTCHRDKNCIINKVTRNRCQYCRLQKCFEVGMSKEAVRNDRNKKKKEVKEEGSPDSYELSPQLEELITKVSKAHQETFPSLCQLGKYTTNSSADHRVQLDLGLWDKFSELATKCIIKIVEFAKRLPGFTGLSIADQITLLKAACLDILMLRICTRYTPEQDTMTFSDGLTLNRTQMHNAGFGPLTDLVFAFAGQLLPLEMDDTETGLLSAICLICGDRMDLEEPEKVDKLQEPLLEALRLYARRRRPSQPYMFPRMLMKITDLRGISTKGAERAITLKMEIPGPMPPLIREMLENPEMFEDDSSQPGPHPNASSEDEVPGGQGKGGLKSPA

[8] = target: T4, Retinoic acid receptor gamma; format: functional, cell-based; remark: listed apart in the source
[9] = target: T5, Thromboxane A2 receptor (Homo sapiens, UniProt P21731); format: functional, cell-based
T5 sequence (P21731 whole entry): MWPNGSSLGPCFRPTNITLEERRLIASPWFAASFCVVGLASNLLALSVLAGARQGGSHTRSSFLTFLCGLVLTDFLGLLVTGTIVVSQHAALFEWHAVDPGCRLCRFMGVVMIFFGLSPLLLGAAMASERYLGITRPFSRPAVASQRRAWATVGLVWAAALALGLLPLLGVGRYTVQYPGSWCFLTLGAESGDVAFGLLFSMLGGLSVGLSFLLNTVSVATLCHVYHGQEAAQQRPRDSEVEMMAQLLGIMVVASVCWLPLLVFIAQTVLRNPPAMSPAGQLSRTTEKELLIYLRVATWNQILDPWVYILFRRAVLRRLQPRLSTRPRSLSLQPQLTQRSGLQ

[10] = target: T6, Alpha-2A adrenergic receptor (Homo sapiens, UniProt P08913)
T6 sequence (P08913 whole entry): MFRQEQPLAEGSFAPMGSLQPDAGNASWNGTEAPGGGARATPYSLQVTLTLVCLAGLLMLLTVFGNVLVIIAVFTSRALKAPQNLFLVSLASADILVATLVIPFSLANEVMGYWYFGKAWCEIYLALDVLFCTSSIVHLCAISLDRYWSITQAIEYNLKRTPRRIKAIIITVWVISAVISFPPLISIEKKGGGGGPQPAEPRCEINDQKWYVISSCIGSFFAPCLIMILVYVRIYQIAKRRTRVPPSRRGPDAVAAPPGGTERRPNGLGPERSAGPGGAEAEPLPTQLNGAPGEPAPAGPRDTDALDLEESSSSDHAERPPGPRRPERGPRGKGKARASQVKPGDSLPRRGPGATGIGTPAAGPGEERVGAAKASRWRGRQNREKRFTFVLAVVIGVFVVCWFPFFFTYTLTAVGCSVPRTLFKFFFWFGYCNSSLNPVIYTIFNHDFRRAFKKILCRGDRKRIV
Note: assay procedure not described here.

AC50 [1]: > 30 µM
SMILES: COc1ccccc1Oc1c(NS(=O)(=O)c2ccc(C(C)(C)C)cc2)nc(-c2ncccn2)nc1OCCO [BOSENTAN]

SMILES: CCN1CCN(Cc2ccc(Nc3ncc(F)c(-c4cc(F)c5nc(C)n(C(C)C)c5c4)n3)nc2)CC1 [ABEMACICLIB]
AC50 [2]: > 30 µM

SMILES: Cc1onc(-c2ccccc2)c1-c1ccc(S(N)(=O)=O)cc1 [VALDECOXIB]
AC50 [3]: > 10 µM

AC50 [4]: > 30 µM | AC50 [1]: > 30 µM | AC50 [5]: > 3 µM | AC50 [6]: > 30 µM | AC50 [7]: > 30 µM | AC50 [8]: > 10 µM
SMILES: CCN(CC)CCNC(=O)c1c(C)[nH]c(/C=C2\C(=O)Nc3ccc(F)cc32)c1C [SUNITINIB]

AC50 [1]: > 30 µM
SMILES: CO[C@H]1/C=C/O[C@@]2(C)Oc3c(C)c(O)c4c(O)c(c(/C=N/N5CCN(C)CC5)c(O)c4c3C2=O)NC(=O)/C(C)=C\C=C\[C@H](C)[C@H](O)[C@@H](C)[C@@H](O)[C@@H](C)[C@H](OC(C)=O)[C@@H]1C [RIFAMPIN]

SMILES: COc1cc2nccc(Oc3ccc(NC(=O)C4(C(=O)Nc5ccc(F)cc5)CC4)cc3)c2cc1OC [CABOZANTINIB]
AC50 [2]: 6.2 µM | AC50 [9]: 5.52 µM | AC50 [10]: > 30 µM

SMILES: C[C@H](CCC(=O)O)[C@H]1CC[C@H]2[C@@H]3[C@@H](O)C[C@@H]4C[C@H](O)CC[C@]4(C)[C@H]3CC[C@]12C [URSODIOL]
AC50 [2]: > 30 µM

SMILES: COc1cc2nc(N3CCN(C(=O)C4CCCO4)CC3)nc(N)c2cc1OC (stereo not given) [TERAZOSIN]
AC50 [10]: 29 µM

AC50 [4]: > 30 µM | AC50 [1]: > 30 µM | AC50 [5]: > 30 µM | AC50 [6]: > 30 µM | AC50 [7]: > 30 µM | AC50 [8]: > 30 µM
SMILES: CC(C(=O)O)c1ccc2c(c1)[nH]c1ccc(Cl)cc12 (stereo not given) [CARPROFEN]

SMILES: CC(C)Cc1ccc(C(C)C(=O)O)cc1 (stereo not given) [IBUPROFEN]
AC50 [1]: > 30 µM

AC50 [3]: > 10 µM
SMILES: N[C@@H](CC(=O)N1CCn2c(nnc2C(F)(F)F)C1)Cc1cc(F)c(F)cc1F [SITAGLIPTIN]

SMILES: C=CC[C@@H]1/C=C(\C)C[C@H](C)C[C@H](OC)[C@H]2O[C@@](O)(C(=O)C(=O)N3CCCC[C@H]3C(=O)O[C@H](/C(C)=C/[C@@H]3CC[C@@H](O)[C@H](OC)C3)[C@H](C)[C@@H](O)CC1=O)[C@H](C)C[C@@H]2OC [TACROLIMUS ANHYDROUS]
AC50 [2]: > 30 µM | AC50 [9]: 10 µM
